One data set deals with T1, recombinant HCV-NS5b (Hepatitis C virus genotype 1b, UniProt Q9WMX2).
T1 construct: (His)6 (C); made in house; host or cells: XL-1 cells (E. coli)
The data set can be described thus: HCV-NS5b Enzyme Assay. The format is biochemical. The text has this: The coding sequence of NS5b protein is cloned by PCR from pFKI389luc/NS3-3′/ET as described by Lohmann, V., et al. (1999) Science 285, 110-113 using the following primers: […] (SEQ. ID. NO. 1) […] (SEQ. ID. NO. 2)
The cloned fragment is missing the C terminus 21 amino acid residues. The cloned fragment is inserted into an IPTG-inducible expression plasmid that provides an epitope tag (His)6 at the carboxy terminus of the protein.
The recombinant enzyme is expressed in XL-1 cells and after induction of expression, the protein is purified using affinity chromatography on a nickel-NTA column. Storage condition is 10 mM Tris-HCl pH 7.5, 50 mM NaCl, 0.1 mM EDTA, 1 mM DTT, 20% glycerol at −20° C.
The polymerase activity is assayed by measuring incorporation of radiolabeled UTP into a RNA product using a biotinylated, heteropolymeric template, which includes a portion of the HCV genome. Typically, the assay mixture (50 μL) contains 10 mM Tris-HCl (pH 7.5), 5 mM MgCl2, 0.2 mM EDTA, 10 mM KCl, 1 unit/μL RNAsin, 1 mM DTT, 10 μM each of NTP, including [^3H]-UTP, and 10 ng/μL heteropolymeric template. Test compounds are initially dissolved in 100% DMSO and further diluted in aqueous buffer containing 5% DMSO. Typically, compounds are tested at concentrations between 1 nM and 100 μM. […] Incorporation of radioactivity is determined by scintillation counting.

For data set [1] the following is noted: patients treated at currently recommended doses; cited from earlier work.
The subject of data set [2] is HCV replicon I389luc-ubi-neo/NS3-3′/ET in ET (Huh-lucubineo-ET) cell line. As to the kind of experiment: Replicon Assay. Format: cell-based. The following applies: Hepatitis C virus, read-out: Replicon Assay. As for the experimental part: A cell line, ET (Huh-lucubineo-ET) is used for screening of compounds of the present invention for HCV RNA dependent RNA polymerase. The ET cell line is stably transfected with RNA transcripts harboring a I389luc-ubi-neo/NS3-3′/ET; replicon with firefly luciferase-ubiquitin-neomycin phosphotransferase fusion protein and EMCV-IRES driven NS3-5B polyprotein containing the cell culture adaptive mutations (E1202G; T1280I; K1846T) (Krieger at al, 2001 and unpublished). The ET cells are grown in DMEM, supplemented with 10% fetal calf serum, 2 mM Glutamine, Penicillin (100 IU/mL)/Streptomycin (100 μg/mL), 1× nonessential amino acids, and 250 μg/mL G418 (“Geneticin”). They are all available through Life Technologies (Bethesda, Md.). The cells are plated at 0.5-1.0×10^4 cells/well in the 96 well plates and incubated for 24 hrs before adding nucleoside analogs. […] Luciferase activity will be measured 48-72 hours later by adding a lysis buffer and the substrate (Catalog number Glo-lysis buffer E2661 and Bright-Glo leuciferase system E2620 Promega, Madison, Wis.). […] Under the same condition, cytotoxicity of the compounds will be determined using cell proliferation reagent, WST-1 (Roche, Germany). […] IC50 and TC50 values were calculated by fitting % inhibition at each concentration to the following equation: % inhibition=100%/[(IC50/[I])^b+1] where b is Hill's coefficient.
A general note: Replicon systems follow genome replication, usually without infectious particles.

For the next data set, the system named is HCV. The following applies: treatment of HCV with interferon; cited from earlier work.

Consider `C[C@@]1(O)[C@H](O)[C@@H](COP(=O)(O)OP(=O)(O)OP(=O)(O)O)O[C@H]1n1cc([N+](=O)[O-])c2c(N)ncnc21` [Compound 104, 7-(2′-C-methyl-5′-triphospho-β-D-ribofuranosyl)-4-amino-5-nitro-pyrrolo[2,3-d]pyrimidine], for which, at recombinant HCV-NS5b, the IC50 turned out to be 2600 nM.

Regarding `NC(=O)c1ncn([C@@H]2O[C@H](CO)[C@@H](O)[C@H]2O)n1` [Ribavirin, 1-β-D-ribofuranosyl-1H-1,2,-4-triazole-3-carboxamide], the “patients with significant hemolysis” value in data set [1] is 10-20%.

As for `C[C@@]1(O)[C@H](O)[C@@H](CO)O[C@H]1n1cc(C(=O)O)c2c(N)ncnc21` [Comparative Example A, 7-(2′-methyl-β-D-ribofuranosyl)-4-amino-5-carboxy-pyrrolo[2,3-d]pyrimidine, reference compound], the IC50 in data set [2] is above 50000 nM.

For interferon, the “response rate (long term efficacy)” value with HCV is recorded as “about 25%”.

On to `C[C@@]1(O)[C@H](O)[C@@H](CO)O[C@H]1n1cc([N+](=O)[O-])c2c(N)ncnc21` [Compound 101, 7-(2′-C-methyl-β-D-ribofuranosyl)-4-amino-5-nitro-pyrrolo[2,3-d]pyrimidine], for which, in data set [2], the IC50 is 60 nM.

Values taken from US7414031B2, “5-nitro-nucleoside compounds for treating viral infections” (priority 2004, dated 2008).
